Measurements as given in US20020165233A1, “Quinoxaline containing medicaments for post exposure prophylaxis of an HIV infection” (priority 1999, published 2002).

How the values were obtained:
RT-SHIV [1] = assay: Cytotoxic lymphocytes (CTL) assay against env and gag-pol; type: in vivo, rhesus monkeys; conditions: treated animals; all time points tested (3 w to 40 w post exposure)
RT-SHIV [2] = assay: Anti-SIV ELISA (humoral response); type: in vivo, rhesus monkeys
Method: (§1) Nine rhesus monkeys (male, 2 years old, 2-3 kg) were seronegative for SIV, Simian T cell Leukemia Virus (STLV), B virus and Type D retroviruses. 15 mg/kg body weight of COMPOUND A was subcutaneously administered into animals twice a day (12 h interval) for 28 d. Animals were divided into three groups. All animals were intravenously administered with 100 TCID50 of RT-SHIV The first group consisted of three animals treated with COMPOUND A from 8 h post exposure for 28 d. The second group of animals was treated with COMPOUND A from 24 h post exposure for 28 d. The third group (control) received the solvent that was used to dissolve COMPOUND A (PEG400:glycerol:water=[…]) from 8 h post exposure for 28 d.
1:100 fold diluted plasma was assayed with ELISA plates coated with SIVmac239 virion lysate. Antibody titer was monitored by measuring the absorbance at 492 nm.

RT-SHIV [3] = assay: Inhibitory activity on RT-SHIV replication in Herpes Saimiri Virus transformed monkey CD4+ T cells (P27 SIV gag antigen); type: cell-based, chimeric simian-human immunodeficiency virus (SHIV)
Method: The virus used in the experiments is a chimeric simian-human immunodeficiency virus (SHIV) that consists of SIVmac239 virus genome with replacement of reverse transcriptase gene (RT) by the corresponding HIV-1 RT gene (Ueberla, K. et al (1995), Medical Sciences 92, […]). RT-SHIV induced AIDS in experimentally infected rhesus monkeys (Ueberla, loc.cit.). Proviral RT-SHIV DNA was prepared by ligation of RT-SHIV5′ and 3′ half of SIVmac239. COS-1 virus stocks were prepared by DNA transfection of proviral DNA. Virus stocks for efficacy experiments were prepared by propagation of COS-1 virus stock in rhesus monkey peripheral blood lymphocytes (PBL). P27 antigen concentration of the virus stocks was determined with a commercial SIV gag antigen ELISA kit (Coulter). The 50% T cell infective dose (TCID50) of the stocks was determined with Herpes Simiri Virus transformed cynomolgus CD4^+ T cells (cyT/HSV).
Inhibitory Activity of COMPOUND A on RT-SHIV Replication in Herpes Saimiri Virus Transformed Monkey CD4^+ T Cells:
3×10^6 of CyT/HSV cells were infected with RT-SHIV stocks containing 10000 TCID50 for 2 h at 37° C., then washed and resuspended in the medium containing serially diluted COMPOUND A (0, 0.1, 0.3, 1, 3, 10, 30, 100, 300, 1000 nM). […] Virus growth was monitored by measuring of P27 SIV gag antigen in culture supernatant with a commercial kit.

[4] = design: species or system rhesus monkeys; conditions: rhesus monkey, in vivo, sc, 15 mg/kg
Method: as §1
Blood was collected from all the animals either just before or 2 h after the drug administration on 0, 3, 7, 10, 14, 21, 29 d post exposure in order to check the drug concentration, otherwise in intervals of 2 to 8 weeks. Biopsy of inguinal lymph nodes was conducted on 17 d or 18 d and 8 weeks post exposure in two animals per group. Cerebrospinal fluid (CSF) was collected from the animals just before biopsy.
Determination of COMPOUND A Concentration in Plasma and CSF:
Blood was collected from all animals just before or 2 h after drug administration to check trough (lowest) or highest blood concentration of the drug. COMPOUND A concentration in CSF was determined by HPLC.

RT-SHIV [5] = assay: env specific cell proliferation assay; type: in vivo, rhesus monkeys
Method: as §1
Cell Proliferation Assay:
The method used was described previously [J. Virol, 1996: 70, 678-681]. In brief, PBMC was thawed and incubated as described in the CTL assay. Triplicates of PBMC (4×10^5) cells were incubated with autologous B-LCL (1×10^5) that had been infected with SIV env-rvv or control vv and fixed with 1.5% paraformaldehyde in phosphate buffered saline (PBS). ^3H-thymidine was added to 8 h before harvesting. The incorporation of ^3H-thymidine was measured by liquid scintillation counting. The stimulation index was calculated as (mean c.p.m. of PBMC cultured with env-rvv/mean c.p.m. of PBMC cultured with control vv).

CC[C@H]1C(=O)Nc2ccc(F)cc2N1C(=O)OC(C)C [Compound A, (3S)-ethyl-6-fluoro-4-isopropyloxycarbonyl-3,4-dihydroquinoxalin-2(1H)-one]
CTL activity against env and gag-pol (RT-SHIV [1]): constant high CTL activity | induction of humoral response against RT-SHIV (RT-SHIV [2]; ELISA against SIV virion proteins, untreated sero-positive at 4 weeks): delayed induction of humoral response | treated animals sero-positive (RT-SHIV [2]; at 11 weeks post exp.): Two of six | humoral response of animal #5 (RT-SHIV [2]; late course): eventually lost its humoral response | suppression of RT-SHIV replication (RT-SHIV [3]; 10 nM COMPOUND A, Herpes Saimiri Virus transformed monkey CD4+ cells): more than 95% | IC90 (RT-SHIV [3]; Simian-Human immunodeficiency virus, CD4+ T, in Primates, read-out: IC90 value (RT-SHIV replication)): 8 nM | concentration in cerebral spinal fluid (CSF) relative to blood [4]: approximately one tenth | minimum level of the drug [4]: higher than the effective minimal concentration | trough concentration relative to the IC90 value [4]: 3 fold | proliferative response at week 40 (RT-SHIV [5]; all treated animals versus untreated group): levels higher than those of the untreated group | env specific proliferative responses (RT-SHIV [5]; all treated animals, 3 weeks through 40 weeks post exposure, versus untreated): Significantly higher
